The kinase profiling compilation of Christmann-Franck et al. (2016)

How the values were obtained:
Test in all cases: Caliper, Mobility shift assay off-chip
SYK (human) = SYK (human) (UniProt P43405)
RPS6KB1 (human) = RPS6KB1 (human) (UniProt P23443)
MAPK14 (human) = MAPK14 (human) (UniProt Q16539)
MAPK1 (human) = MAPK1 (human) (UniProt P28482)
[1] = system: FGFR2 (human), P21802 [N549H]
[2] = system: ABL1 (human), P00519 [Q252H]
FGFR4 (human) = FGFR4 (human) (UniProt P22455)
EGFR (human) = EGFR (human) (UniProt P00533)
IKBKB (human) = IKBKB (human) (UniProt O14920)
MAPK3 (human) = MAPK3 (human) (UniProt P27361)
NEK2 (human) = NEK2 (human) (UniProt P51955)
RPS6KA3 KD1 KD2 (human) = RPS6KA3 KD1 KD2 (human) (UniProt P51812)
MAPKAPK2 (human) = MAPKAPK2 (human) (UniProt P49137)
BMX (human) = BMX (human) (UniProt P51813)
[3] = system: ABL1 (human), P00519 [T315I]
[4] = system: ABL1 (human), P00519 [H396P]
PRKCB2 (human) = PRKCB2 (human) (UniProt P05771)
MARK3 (human) = MARK3 (human) (UniProt P27448)
PRKCA (human) = PRKCA (human) (UniProt P17252)
FER (human) = FER (human) (UniProt P16591)
SGK2 (human) = SGK2 (human) (UniProt Q9HBY8)
CAMK4 (human) = CAMK4 (human) (UniProt Q16566)
PRKCB1 (human) = PRKCB1 (human) (UniProt P05771)
RPS6KA2 KD1 KD2 (human) = RPS6KA2 KD1 KD2 (human) (UniProt Q15349)
ROCK2 (human) = ROCK2 (human) (UniProt O75116)
MAPKAPK5 (human) = MAPKAPK5 (human) (UniProt Q8IW41)
PRKD1 (human) = PRKD1 (human) (UniProt Q15139)
BTK (human) = BTK (human) (UniProt Q06187)
MARK2 (human) = MARK2 (human) (UniProt Q7KZI7)
AURKB (human) = AURKB (human) (UniProt Q96GD4)
CAMK2D (human) = CAMK2D (human) (UniProt Q13557)
RPS6KA5 KD1 KD2 (human) = RPS6KA5 KD1 KD2 (human) (UniProt O75582)
CSNK1A1 (human) = CSNK1A1 (human) (UniProt P48729)
INSR (human) = INSR (human) (UniProt P06213)

Sequence of RPS6KA5 KD1 KD2 (human) (O75582 whole entry, looked up): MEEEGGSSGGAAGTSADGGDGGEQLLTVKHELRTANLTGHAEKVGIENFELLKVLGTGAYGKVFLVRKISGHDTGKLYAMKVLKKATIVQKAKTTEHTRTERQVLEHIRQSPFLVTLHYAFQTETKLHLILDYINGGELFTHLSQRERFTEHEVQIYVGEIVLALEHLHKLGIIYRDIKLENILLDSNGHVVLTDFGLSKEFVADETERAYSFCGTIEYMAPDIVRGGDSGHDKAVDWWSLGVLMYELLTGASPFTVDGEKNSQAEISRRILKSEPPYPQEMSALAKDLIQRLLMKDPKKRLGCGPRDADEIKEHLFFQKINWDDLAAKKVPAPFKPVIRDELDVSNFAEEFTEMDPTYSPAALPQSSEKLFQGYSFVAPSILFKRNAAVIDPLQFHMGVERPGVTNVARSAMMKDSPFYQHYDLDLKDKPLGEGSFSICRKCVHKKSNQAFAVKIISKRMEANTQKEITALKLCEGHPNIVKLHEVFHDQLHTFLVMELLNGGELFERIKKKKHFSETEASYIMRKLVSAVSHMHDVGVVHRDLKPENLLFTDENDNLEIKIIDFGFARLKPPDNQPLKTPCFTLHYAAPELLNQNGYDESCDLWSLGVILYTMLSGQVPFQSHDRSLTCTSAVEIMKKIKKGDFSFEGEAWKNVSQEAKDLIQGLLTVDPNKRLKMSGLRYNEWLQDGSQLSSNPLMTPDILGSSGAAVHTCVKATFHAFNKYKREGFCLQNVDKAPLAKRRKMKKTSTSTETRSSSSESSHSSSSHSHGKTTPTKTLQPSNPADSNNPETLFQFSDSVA
Sequence of BMX (human) (P51813 whole entry, looked up): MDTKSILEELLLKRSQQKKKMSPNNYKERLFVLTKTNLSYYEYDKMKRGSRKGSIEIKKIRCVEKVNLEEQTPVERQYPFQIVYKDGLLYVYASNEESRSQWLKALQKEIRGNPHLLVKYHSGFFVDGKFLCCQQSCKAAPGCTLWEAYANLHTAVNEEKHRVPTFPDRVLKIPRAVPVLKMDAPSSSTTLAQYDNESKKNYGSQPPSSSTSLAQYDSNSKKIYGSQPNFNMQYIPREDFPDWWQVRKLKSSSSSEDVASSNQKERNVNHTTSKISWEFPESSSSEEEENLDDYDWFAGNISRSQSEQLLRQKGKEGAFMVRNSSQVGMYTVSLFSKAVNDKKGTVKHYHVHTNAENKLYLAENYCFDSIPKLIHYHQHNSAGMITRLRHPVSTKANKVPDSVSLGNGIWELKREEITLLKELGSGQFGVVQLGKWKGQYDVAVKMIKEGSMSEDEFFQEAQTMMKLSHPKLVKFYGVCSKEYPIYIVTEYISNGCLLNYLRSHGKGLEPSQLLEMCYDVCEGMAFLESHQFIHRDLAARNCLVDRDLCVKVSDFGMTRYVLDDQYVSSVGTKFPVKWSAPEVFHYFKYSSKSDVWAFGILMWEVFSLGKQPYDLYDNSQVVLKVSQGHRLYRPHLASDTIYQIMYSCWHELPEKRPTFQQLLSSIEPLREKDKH
Sequence of RPS6KA3 KD1 KD2 (human) (P51812 whole entry, looked up): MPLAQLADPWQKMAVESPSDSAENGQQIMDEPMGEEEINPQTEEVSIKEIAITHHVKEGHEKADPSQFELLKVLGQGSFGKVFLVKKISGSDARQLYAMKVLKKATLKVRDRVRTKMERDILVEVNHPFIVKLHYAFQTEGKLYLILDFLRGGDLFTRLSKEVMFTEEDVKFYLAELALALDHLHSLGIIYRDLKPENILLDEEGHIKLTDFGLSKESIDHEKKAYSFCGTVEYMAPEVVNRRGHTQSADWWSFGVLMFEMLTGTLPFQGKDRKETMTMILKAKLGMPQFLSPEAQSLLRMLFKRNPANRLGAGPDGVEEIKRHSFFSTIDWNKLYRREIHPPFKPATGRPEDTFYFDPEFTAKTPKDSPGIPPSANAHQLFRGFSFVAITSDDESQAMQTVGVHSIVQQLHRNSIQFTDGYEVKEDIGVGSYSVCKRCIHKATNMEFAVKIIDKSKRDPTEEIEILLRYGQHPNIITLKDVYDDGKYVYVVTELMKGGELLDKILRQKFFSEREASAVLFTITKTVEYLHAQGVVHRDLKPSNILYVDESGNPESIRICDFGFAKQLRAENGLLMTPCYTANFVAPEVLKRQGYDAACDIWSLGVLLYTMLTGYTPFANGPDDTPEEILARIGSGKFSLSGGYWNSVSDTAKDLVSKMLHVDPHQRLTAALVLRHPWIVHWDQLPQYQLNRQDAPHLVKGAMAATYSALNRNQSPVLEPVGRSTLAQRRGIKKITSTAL
Sequence of RPS6KA2 KD1 KD2 (human) (Q15349 whole entry, looked up): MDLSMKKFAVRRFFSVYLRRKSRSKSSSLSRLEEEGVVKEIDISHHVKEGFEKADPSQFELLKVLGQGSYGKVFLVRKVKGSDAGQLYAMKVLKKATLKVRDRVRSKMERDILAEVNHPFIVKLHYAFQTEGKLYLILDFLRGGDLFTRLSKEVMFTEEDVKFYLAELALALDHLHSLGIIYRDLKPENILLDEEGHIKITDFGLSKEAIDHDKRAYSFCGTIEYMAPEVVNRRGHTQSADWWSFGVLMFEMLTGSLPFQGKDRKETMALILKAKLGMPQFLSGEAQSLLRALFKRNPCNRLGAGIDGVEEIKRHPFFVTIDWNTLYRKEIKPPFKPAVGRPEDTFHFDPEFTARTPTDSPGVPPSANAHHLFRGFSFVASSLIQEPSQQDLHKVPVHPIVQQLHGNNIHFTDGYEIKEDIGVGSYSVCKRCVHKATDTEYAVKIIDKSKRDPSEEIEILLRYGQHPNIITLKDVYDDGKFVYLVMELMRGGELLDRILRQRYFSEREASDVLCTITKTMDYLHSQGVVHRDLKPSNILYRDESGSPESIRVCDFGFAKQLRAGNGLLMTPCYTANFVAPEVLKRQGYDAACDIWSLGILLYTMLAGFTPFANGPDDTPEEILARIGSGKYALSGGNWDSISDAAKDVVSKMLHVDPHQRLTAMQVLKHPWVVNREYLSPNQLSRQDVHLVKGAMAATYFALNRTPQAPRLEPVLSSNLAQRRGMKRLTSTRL
Sequence of CAMK2D (human) (Q13557 whole entry, looked up): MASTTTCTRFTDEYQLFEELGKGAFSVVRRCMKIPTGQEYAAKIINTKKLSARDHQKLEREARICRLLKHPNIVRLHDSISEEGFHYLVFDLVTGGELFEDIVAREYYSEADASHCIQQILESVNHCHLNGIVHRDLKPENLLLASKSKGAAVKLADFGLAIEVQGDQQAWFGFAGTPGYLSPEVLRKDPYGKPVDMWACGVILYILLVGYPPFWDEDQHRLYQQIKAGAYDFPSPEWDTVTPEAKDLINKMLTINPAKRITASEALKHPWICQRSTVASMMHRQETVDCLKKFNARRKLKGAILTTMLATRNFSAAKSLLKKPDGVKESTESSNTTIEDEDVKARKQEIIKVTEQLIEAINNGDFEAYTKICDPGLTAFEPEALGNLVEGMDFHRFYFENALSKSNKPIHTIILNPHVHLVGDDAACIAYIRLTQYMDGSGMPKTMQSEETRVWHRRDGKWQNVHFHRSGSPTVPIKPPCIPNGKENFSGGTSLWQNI
Sequence of MAPKAPK5 (human) (Q8IW41 whole entry, looked up): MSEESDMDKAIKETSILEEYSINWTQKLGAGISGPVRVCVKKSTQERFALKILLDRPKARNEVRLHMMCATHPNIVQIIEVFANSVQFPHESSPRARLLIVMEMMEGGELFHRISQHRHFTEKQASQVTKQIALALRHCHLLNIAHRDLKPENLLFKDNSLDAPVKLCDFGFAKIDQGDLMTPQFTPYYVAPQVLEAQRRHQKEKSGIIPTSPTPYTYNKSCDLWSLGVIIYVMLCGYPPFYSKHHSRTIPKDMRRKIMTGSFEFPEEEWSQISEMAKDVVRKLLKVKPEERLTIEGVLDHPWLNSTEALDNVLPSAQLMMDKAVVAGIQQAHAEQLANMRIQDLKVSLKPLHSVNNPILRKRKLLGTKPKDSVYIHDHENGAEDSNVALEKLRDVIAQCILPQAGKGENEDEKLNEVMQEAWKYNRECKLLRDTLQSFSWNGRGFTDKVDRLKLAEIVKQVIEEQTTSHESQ
Sequence of MAPK1 (human) (P28482 whole entry, looked up): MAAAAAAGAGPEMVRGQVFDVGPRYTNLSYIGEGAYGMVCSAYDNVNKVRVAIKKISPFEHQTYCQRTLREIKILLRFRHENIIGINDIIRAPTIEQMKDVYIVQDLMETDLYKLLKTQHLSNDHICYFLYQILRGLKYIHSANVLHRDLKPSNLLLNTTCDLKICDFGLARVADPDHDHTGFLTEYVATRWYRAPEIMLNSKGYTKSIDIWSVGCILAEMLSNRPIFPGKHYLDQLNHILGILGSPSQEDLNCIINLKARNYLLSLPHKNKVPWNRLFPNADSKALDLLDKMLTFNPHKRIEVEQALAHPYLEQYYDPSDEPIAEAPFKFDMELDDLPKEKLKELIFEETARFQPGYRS
Sequence of CSNK1A1 (human) (P48729 whole entry, looked up): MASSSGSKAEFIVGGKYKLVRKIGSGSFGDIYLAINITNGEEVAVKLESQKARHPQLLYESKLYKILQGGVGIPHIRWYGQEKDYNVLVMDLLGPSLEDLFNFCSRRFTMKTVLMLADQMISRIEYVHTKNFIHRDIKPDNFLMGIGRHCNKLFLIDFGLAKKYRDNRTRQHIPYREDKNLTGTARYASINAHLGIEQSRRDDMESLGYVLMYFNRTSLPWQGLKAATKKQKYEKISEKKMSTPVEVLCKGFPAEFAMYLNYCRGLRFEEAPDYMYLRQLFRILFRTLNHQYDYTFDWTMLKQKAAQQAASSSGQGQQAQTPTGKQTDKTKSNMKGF
Sequence of MAPK3 (human) (P27361 whole entry, looked up): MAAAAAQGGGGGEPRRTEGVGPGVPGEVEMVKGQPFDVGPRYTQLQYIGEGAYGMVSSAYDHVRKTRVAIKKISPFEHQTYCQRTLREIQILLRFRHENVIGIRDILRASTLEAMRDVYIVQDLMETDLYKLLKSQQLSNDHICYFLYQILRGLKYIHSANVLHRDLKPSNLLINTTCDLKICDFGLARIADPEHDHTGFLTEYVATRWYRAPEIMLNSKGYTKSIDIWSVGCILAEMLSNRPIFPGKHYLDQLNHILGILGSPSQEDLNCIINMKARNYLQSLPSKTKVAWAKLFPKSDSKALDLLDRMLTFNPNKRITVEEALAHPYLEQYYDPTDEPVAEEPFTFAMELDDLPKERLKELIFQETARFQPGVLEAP

inhibition (SYK (human); compound 0.1 µM): -0.6% | inhibition (SYK (human); compound 1.0 µM): -0.5% | inhibition (RPS6KB1 (human); compound 0.1 µM): 10.9% | inhibition (RPS6KB1 (human); compound 1.0 µM): -3.3% | inhibition (MAPK14 (human); compound 0.1 µM): -10.6% | inhibition (MAPK14 (human); compound 1.0 µM): 5.1% | inhibition (MAPK1 (human); compound 0.1 µM): -1.2% | inhibition (MAPK1 (human); compound 1.0 µM): 3.7% | inhibition ([1]; compound 0.1 µM): -8.4% | inhibition ([1]; compound 1.0 µM): 0.9% | inhibition ([2]; compound 0.1 µM): -1.7% | inhibition ([2]; compound 1.0 µM): 8.1% | inhibition (FGFR4 (human); compound 0.1 µM): -3% | inhibition (FGFR4 (human); compound 1.0 µM): -3.3% | inhibition (EGFR (human); compound 0.1 µM): -5.8% | inhibition (EGFR (human); compound 1.0 µM): 9.3% | inhibition (IKBKB (human); compound 0.1 µM): 1.2% | inhibition (IKBKB (human); compound 1.0 µM): -3.1% | inhibition (MAPK3 (human); compound 0.1 µM): 1.7% | inhibition (MAPK3 (human); compound 1.0 µM): -0.5% | inhibition (NEK2 (human); compound 0.1 µM): 6.6% | inhibition (NEK2 (human); compound 1.0 µM): 2.7% | inhibition (RPS6KA3 KD1 KD2 (human); compound 0.1 µM): 0.7% | inhibition (RPS6KA3 KD1 KD2 (human); compound 1.0 µM): 62.5% | inhibition (MAPKAPK2 (human); compound 0.1 µM): -1.1% | inhibition (MAPKAPK2 (human); compound 1.0 µM): 0.8% | inhibition (BMX (human); compound 0.1 µM): -10.4% | inhibition (BMX (human); compound 1.0 µM): 3.2% | inhibition ([3]; compound 0.1 µM): 2.7% | inhibition ([3]; compound 1.0 µM): 1.3% | inhibition ([4]; compound 0.1 µM): 1.4% | inhibition ([4]; compound 1.0 µM): 1.1% | inhibition (PRKCB2 (human); compound 0.1 µM): 3.3% | inhibition (PRKCB2 (human); compound 1.0 µM): -13.3% | inhibition (MARK3 (human); compound 0.1 µM): 0.7% | inhibition (MARK3 (human); compound 1.0 µM): -4.4% | inhibition (PRKCA (human); compound 0.1 µM): -9.4% | inhibition (PRKCA (human); compound 1.0 µM): 15.8% | inhibition (FER (human); compound 0.1 µM): -14.2% | inhibition (FER (human); compound 1.0 µM): 0.5% | inhibition (SGK2 (human); compound 0.1 µM): -1.4% | inhibition (SGK2 (human); compound 1.0 µM): -7.4% | inhibition (CAMK4 (human); compound 0.1 µM): -1.7% | inhibition (CAMK4 (human); compound 1.0 µM): -3.4% | inhibition (PRKCB1 (human); compound 0.1 µM): 1.2% | inhibition (PRKCB1 (human); compound 1.0 µM): -12.2% | inhibition (RPS6KA2 KD1 KD2 (human); compound 0.1 µM): -4.2% | inhibition (RPS6KA2 KD1 KD2 (human); compound 1.0 µM): -2.5% | inhibition (ROCK2 (human); compound 0.1 µM): -2.6% | inhibition (ROCK2 (human); compound 1.0 µM): 4.2% | inhibition (MAPKAPK5 (human); compound 0.1 µM): -4.3% | inhibition (MAPKAPK5 (human); compound 1.0 µM): 2.9% | inhibition (PRKD1 (human); compound 0.1 µM): 7% | inhibition (PRKD1 (human); compound 1.0 µM): 11% | inhibition (BTK (human); compound 0.1 µM): 2.1% | inhibition (BTK (human); compound 1.0 µM): 1.1% | inhibition (MARK2 (human); compound 0.1 µM): -4.6% | inhibition (MARK2 (human); compound 1.0 µM): -1.8% | inhibition (AURKB (human); compound 0.1 µM): 8% | inhibition (AURKB (human); compound 1.0 µM): 27.6% | inhibition (CAMK2D (human); compound 0.1 µM): -22.5% | inhibition (CAMK2D (human); compound 1.0 µM): -4.6% | inhibition (RPS6KA5 KD1 KD2 (human); compound 0.1 µM): -5.3% | inhibition (RPS6KA5 KD1 KD2 (human); compound 1.0 µM): -0.9% | inhibition (CSNK1A1 (human); compound 0.1 µM): 5% | inhibition (CSNK1A1 (human); compound 1.0 µM): -0.6% | inhibition (INSR (human); compound 0.1 µM): 5.1% | inhibition (INSR (human); compound 1.0 µM): 3.5%
Compound: O=C(CCc1ccc2ccc3ncc(C4CCNCC4)cc3c(=O)c2c1)NCc1ccccn1
